Consider 1 compound from patent US7396854B2, “Use of serotonergic compound for a method of treatment of hot flushes in post-menopausal women” (N.V. Organon, priority 2001, dated 2008).

Where a name gives a salt, the structure may show the parent alone.

The subject of this experiment is Male rats (HSD/Cpb:WU). Kind of experiment: telemetric body temperature measurements in freely moving rats (rise in core body temperature after manipulation for injection). Type of experiment: in vivo. The conditions noted are these: subcutaneous, 22 mg/kg. An excerpt: Male rats (HSD/Cpb:WU, Harlan Sprague Dawley, Zeist, The Netherlands), weighing 350-480 g, were used. The rats were implanted with a Physio Tel TA11CTA-F40 Implant (Data Sciences International) under pentobarbital anesthesia. After surgery the rats were housed individually in a type II clear MACROLON™ cage (23×17××14 cm). The cages were placed on receivers (RLA 1020). After a recovery and adaptation period of at least one week the rats were used for the experiments. On the experimental day, body temperature, heart rate and locomotor activity was monitored for 30 minutes prior to injection of vehicle or test compound. This period provides a baseline core body temperature relative to which the changes of body temperature after the manipulation of the rats for injection are expressed. After 30 minutes the rats were injected subcutaneously with vehicle or test compound and the same parameters were measured for at least 60 minutes. Immediately after injection the core body temperature rises. Compounds inhibiting this rise in temperature reveal an inhibiting effect on acute body heat production. Results obtained with other parameters, such as the effect on heart rate and on locomotor activity are not presented here. 6 animals were used for measurement of each dose of compound
Data were analyzed using Dataquest IV Data Acquisition System Ver 2.2.
Compounds were dissolved in NaCl 0.9% (m/v) in water as vehicle for subcutaneous injection.

`CNCCC(Oc1ccc(C(F)(F)F)cc1)c1ccccc1` (stereo not drawn) [Fluoxetine, Fluoxetine HCl, reference compound]: the “absolute mean increments in body temperature relative to baseline during 30 minutes prior to manipulation” value is, setting by setting: (5 minutes after injection) 0.28 °C; (10 minutes after injection) 0.59 °C; (15 minutes after injection) 0.71 °C; (20 minutes after injection) 0.72 °C; (25 minutes after injection) 0.66 °C; (30 minutes after injection) 0.56 °C. The “absolute mean increments in body temperature relative to baseline during 30 minutes prior to manipulation” value is 0.55 °C (35 minutes after injection); 0.45 °C (40 minutes after injection); 0.38 °C (45 minutes after injection); 0.27 °C (50 minutes after injection); 0.29 °C (55 minutes after injection); 0.85 °C (60 minutes after injection).
